The source of these data is US11377425B1, “Small molecule modulators of IL-17” (LEO Pharma A/S, priority 2018, dated 2022).

Structures are written as SMILES.

The term EC50 denotes the concentration at which the effect is half-maximal.

The target of the assay is T1, human IL-17AA (Homo sapiens, UniProt Q16552).
T1 construct: host or cells: HEK (human embryonic kidney) cells
T1 sequence (Q16552 24-155): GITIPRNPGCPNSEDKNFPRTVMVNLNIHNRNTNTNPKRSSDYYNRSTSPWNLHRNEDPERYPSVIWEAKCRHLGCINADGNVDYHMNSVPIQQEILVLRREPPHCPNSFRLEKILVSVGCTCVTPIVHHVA
The assay can be described thus: IL-8 release assay in human epithelial keratinocytes adult (HEKa). It counts as cell-based. To be noted: HEKa cells, 3 ng/mL HEK-human IL-17AA + 10 ng/mL human TNFalpha; read-out: Rel EC50 IL-8 release assay. The method, boiled down:
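Adult human epidermal keratinocytes stimulated 68-72 h at 37 °C with 3 ng/mL HEK-derived human IL-17AA plus 10 ng/mL TNF-alpha (final) in the presence of compound; TNF-alpha alone defines 100% inhibition. Secreted IL-8 measured by HTRF as percent of controls; relative IC50/Emax from four-parameter fit (r^2>0.9), cytotoxicity by PrestoBlue.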
Turning to `Cc1n[nH]c(C)c1-c1ccc(NC(=O)[C@@H](NC(=O)c2conc2C(C)C)C2CCCCC2)cc1` [Example 277, N-[(1S)-1-cyclohexyl-2-[4-(3,5-dimethyl-1H-pyrazol-4-yl)anilino]-2-oxo-ethyl]-3-isopropyl-isoxazole-4-carboxamide], the concentration giving a half-maximal response (EC50) is < 100 nM.
Regarding `Cc1n[nH]c(C)c1-c1ccc(NC(=O)[C@@H](NC(=O)c2ccnn2C)[C@@H]2CCc3c(F)cc(Br)cc32)cc1` [Example 278, N-[(1S)-1-[(1R)-6-bromo-4-fluoro-indan-1-yl]-2-[4 (3,5-dimethyl-1H-pyrazol-4-yl)anilino]-2-oxo-ethyl]-2-methyl-pyrazole-3-carboxamide], the EC50 fell in the range of 100 to 1000 nM.
With `Cc1n[nH]c(C)c1-c1ccc(NC(=O)[C@@H](NC(=O)c2ccnn2C(C)C)[C@H]2CCOc3c(F)cc(F)cc32)cc1` [Example 279, N-[(1S)-1-[(4S)-6,8-difluorochroman-4-yl]-2-[4-(3,5-dimethyl-1H-pyrazol-4-yl)anilino]-2-oxo-ethyl]-2-isopropyl-pyrazole-3-carboxamide] the figure was < 100 nM; with `Cc1n[nH]c(C)c1-c1ccc(NC(=O)[C@H](CC(C)(C)C)NC(=O)c2ccnn2C)cc1` [Example 281], 100 to 1000 nM.
With `Cc1n[nH]c(C)c1-c1ccc(NC(=O)C(NC(=O)c2ccnn2C(C)C)C(C)C2CC2)cc1` (stereo not drawn) [Example 282] the figure was 100 to 1000 nM; with `Cc1n[nH]c(C)c1-c1ccc(NC(=O)[C@@H](NC(=O)c2ccnn2C(C)C)[C@@H](C)C2CC2)cc1` [Example 283, N-[(1S,2S)-2-cyclopropyl-1-[4-(3,5-dimethyl-1H-pyrazol-4-yl)phenyl]carbamoyl] propyl-2-isopropyl-pyrazole-3-carboxamide], 100 to 1000 nM; with `Cc1n[nH]c(C)c1-c1ccc(NC(=O)[C@@H](NC(=O)c2csc3cnccc23)C2CCCCC2)cc1` [Example 286, N-[(1S)-1-cyclohexyl-2-[4-(3,5-dimethyl-1H-pyrazol-4-yl)anilino]-2-oxo-ethyl]thieno[2,3-c]pyridine-3-carboxamide], 100 to 1000 nM.
The result for `Cc1n[nH]c(C)c1-c1ccc(NC(=O)[C@@H](NC(=O)c2ccnn2C(C)C)[C@H]2CCOc3c(F)cccc32)cc1` [Example 287, N-[(1S)-2-[4-(3,5-dimethyl-1H-pyrazol-4-yl)anilino]-1-[(4S)-8-fluorochroman-4-yl]-2-oxo-ethyl]-2-isopropyl-pyrazole-3-carboxamide] reads < 100 nM; that for `Cc1n[nH]c(C)c1-c1ccc(NC(=O)[C@@H](NC(=O)c2ccnn2C(C)C)[C@H]2CCOc3cc(F)ccc32)cc1` [Example 288, N-[(1S)-2-[4-(3,5-dimethyl-1H-pyrazol-4-yl)anilino]-1-[(4S)-7-fluorochroman-4-yl]-2-oxo-ethyl]-2-isopropyl-pyrazole-3-carboxamide], < 100 nM; that for `Cc1n[nH]c(C)c1-c1ccc(NC(=O)[C@@H](NC(=O)c2ccnn2C(C)C)[C@H]2CCOc3ccc(F)cc32)cc1` [Example 289, N-[(1S)-2-[4-(3,5-dimethyl-1H-pyrazol-4-N yl)anilino]-1-[(4S)-6-fluorochroman-4-yl]-2-oxo-ethyl]-2-isopropyl-pyrazole-3-carboxamide], < 100 nM.
In the case of `CCc1nocc1C(=O)N[C@H](C(=O)Nc1ccc(-c2c(C)n[nH]c2C)cc1)C(C1CC1)C1CC1` [Example 290, N-[(1S)-1-(dicyclopropylmethyl)-2-[4-(3,5-dimethyl-1H-pyrazol-4-yl)anilino]-2-oxo-ethyl]-3-ethyl-isoxazole-4-carboxamide], the concentration giving a half-maximal response (EC50) is < 100 nM.
With `Cc1n[nH]c(C)c1-c1ccc(NC(=O)[C@@H](NC(=O)c2conc2C(C)C)C(C2CC2)C2CC2)cc1` [Example 291, N-[(1S)-1-(dicyclopropylmethyl)-2-[4-(3,5-dimethyl-1H-pyrazol-4-yl)anilino]-2-oxo-ethyl]-3-isopropyl-isoxazole-4-carboxamide] the figure was < 100 nM.
As to `Cc1n[nH]c(C)c1-c1ccc(NC(=O)[C@@H](NC(=O)c2cnnn2C(C)C)C(C2CC2)C2CC2)cc1` [Example 292, N-[(1S)-1-(dicyclopropylmethyl)-2-[4-(3,5-dimethyl-1H-pyrazol-4-yl)anilino]-2-oxo-ethyl]-3-isopropyl-triazole-4-carboxamide], the EC50 was < 100 nM.
Consider `Cc1n[nH]c(C)c1-c1ccc(NC(=O)[C@@H](NC(=O)c2cnc3ccccn23)C2CCCCC2)cc1` [Example 293, N-[(1S)-1-cyclohexyl-2-[4-(3,5-dimethyl-1H-pyrazol-4-yl)anilino]-2-oxo-ethyl]imidazo[1,2-a]pyridine-3-carboxamide], for which the EC50 fell in the range of 100 to 1000 nM.
For the compound `Cc1n[nH]c(C)c1-c1ccc(NC(=O)C(NC(=O)c2ccnn2C(C)C)C(C2CC(F)(F)C2)C2CC(F)(F)C2)cc1` (stereo not drawn) [Example 295, N-[1-[bis(3,3-difluorocyclobutyl)methyl]-2-[4-(3,5-dimethyl-1H-pyrazol-4-yl)anilino]-2-oxo-ethyl]-2-isopropyl-pyrazole-3-carboxamide], the EC50 lay within 100 to 1000 nM.
For `Cc1n[nH]c(C)c1-c1ccc(NC(=O)[C@@H](Cc2ccccc2)NC(=O)c2ccnn2C)cc1` [Example 297, N-[(1R)-1-benzyl-2-[4-(3,5-dimethyl-1H-pyrazol-4-yl)anilino]-2-oxo-ethyl]-2-methyl-pyrazole-3-carboxamide], the EC50 is > 1000 nM.
With `Cc1n[nH]c(C)c1-c1ccc(NC(=O)[C@H](CC(C)C)NC(=O)c2ccnn2C)cc1` [Example 298] the figure was > 1000 nM; with `Cn1cncc1-c1ccc(NC(=O)[C@H](Cc2cc(C#N)ccc2Cl)NC(=O)OC(C)(C)C)cc1` [Example 307, tert-butyl N-[(1S)-1-[(2-chloro-5-cyano-phenyl)methyl]-2-[4-(3-methylimidazol-4-yl)anilino]-2-oxo-ethyl]carbamate], > 1000 nM; with `Cc1ncn(C)c1-c1ccc(NC(=O)C(NC(=O)c2ccnn2C)C(C2CC2)C2CC2)cc1` (stereo not drawn) [Example 332, N-[1-(dicyclopropylmethyl)-2-[4-(3,5-dimethylimidazol-4-yl)anilino]-2-oxo-ethyl]-2-methyl-pyrazole-3-carboxamide], 100 to 1000 nM.
The result for `Cc1ncn(C)c1-c1ccc(NC(=O)[C@@H](NC(=O)c2ccnn2C)C2CCCC2)cc1` [Example 335, N-[(1S)-1-cyclopentyl-2-[4-(3,5-dimethylimidazol-4-yl)anilino]-2-oxo-ethyl]-2-methyl-pyrazole-3-carboxamide] reads > 1000 nM; that for `Cc1ncn(C)c1-c1ccc(NC(=O)[C@@H](NC(=O)c2ccnn2C)C2CCCCCC2)cc1` [Example 336, N-[(1S)-1-cycloheptyl-2-[4-(3,5-dimethylimidazol-4-yl)anilino]-2-oxo-ethyl]-2-methyl-pyrazole-3-carboxamide], 100 to 1000 nM; that for `Cc1ncn(C)c1-c1ccc(NC(=O)[C@@H](NC(=O)c2ccnn2C)C2CCCCC2)cc1` [Example 337, N-[(1S)-1-cyclohexyl-2-[4-(3,5-dimethylimidazol-4-yl)anilino]-2-oxo-ethyl]-2-methyl-pyrazole-3-carboxamide], 100 to 1000 nM.
Turning to `Cc1ncn(C)c1-c1ccc(NC(=O)[C@@H](NC(=O)c2ccnn2C)C(c2ccccc2)c2ccccc2)cc1` [Example 338, N-[(1S)-1-benzhydryl-2-[4-(3,5-dimethylimidazol-4-yl)anilino]-2-oxo-ethyl]-2-methyl-pyrazole-3-carboxamide], the EC50 lay in the range of 100 to 1000 nM.
With `Cn1cncc1-c1ccc(NC(=O)[C@@H](NC(=O)c2ccnn2C)[C@@H]2CCc3ccc(Br)cc32)cc1` [Example 340, N-[(1S)-1-[(1R)-6-bromoindan-1-yl]-2-[4-(3-methylimidazol-4-yl)anilino]-2-oxo-ethyl]-2-methyl-pyrazole-3-carboxamide] the figure was > 1000 nM; with `Cn1cncc1-c1ccc(NC(=O)[C@@H](NC(=O)c2ccnn2C)[C@H]2CCc3ccc(Br)cc32)cc1` [Example 341, N-[(1S)-1-[(1S)-6-bromoindan-1-yl]-2-[4-(3-methylimidazol-4-yl)anilino]-2-oxo-ethyl]-2-methyl-pyrazole-3-carboxamide], 100 to 1000 nM; with `Cn1cncc1-c1ccc(NC(=O)[C@H](Cc2cc(C#N)ccc2Cl)NC(=O)c2ccnn2C)cc1` [Example 342, N-[(1S)-1-[(2-chloro-5-cyano-phenyl)methyl]-2-[4-(3-methylimidazol-4-yl)anilino]-2-oxo-ethyl]-2-methyl-pyrazole-3-carboxamide], > 1000 nM.
The result for `Cn1cncc1-c1ccc(NC(=O)[C@@H](NC(=O)c2ccnn2C)C2CCCCC2)cc1` [Example 343, N-[(1S)-1-cyclohexyl-2-[4-(3-methylimidazol-4-yl)anilino]-2-oxo-ethyl]-2-methyl-pyrazole-3-carboxamide] reads > 1000 nM; that for `Cn1cncc1-c1ccc(NC(=O)[C@@H](NC(=O)c2ccnn2C)[C@@H]2CCCc3ccc(Br)cc32)cc1` [Example 344, N-[(1S)-1-[(1R)-7-bromotetralin-1-yl]-2-[4-(3-methylimidazol-4-yl)anilino]-2-oxo-ethyl]-2-methyl-pyrazole-3-carboxamide], > 1000 nM.
As for `Cn1cncc1-c1ccc(NC(=O)[C@H](Cc2cc(Br)ccc2Cl)NC(=O)c2ccnn2C)cc1` [Example 345, N-[(1S)-1-[(5-bromo-2-chloro-phenyl)methyl]-2-[4-(3-methylimidazol-4-yl)anilino]-2-oxo-ethyl]-2-methyl-pyrazole-3-carboxamide], the 50% effective concentration (EC50) is 100 to 1000 nM.
With `Cn1cncc1-c1ccc(NC(=O)[C@@H](NC(=O)c2ccnn2C)C(c2ccccc2)c2ccccc2)cc1` [Example 346, N-[(1S)-1-benzhydryl-2-[4-(3-methylimidazol-4-yl)anilino]-2-oxo-ethyl]-2-methyl-pyrazole-3-carboxamide], the EC50 is 100 to 1000 nM.
